Source: patent US11932589B2, “Hydrofluoroolefins and methods of using same” (3M INNOVATIVE PROPERTIES COMPANY, priority 2019, dated 2024)

What was measured:
Type in all cases: physicochemical
[1] = Largest Soluble Hydrocarbon (LSH) test; details: hydrofluoroolefin:hydrocarbon about 1:1 to 1:2 by weight, longest hydrocarbon compatible without haze
Description: Largest Soluble Hydrocarbon (LSH): The LSH of each hydrofluoroolefin compound was determined by mixing the compound with hydrocarbons of varying molecular weight (CnH2n+2, where n=9 to 24) in a hydrofluoroolefin:hydrocarbon ratio of about 1:1 to 1:2 by weight at room temperature (25° C.) and at 50° C. […] A larger value of n is interpreted herein to indicate a greater ability of the hydrofluoroolefin to clean hydrocarbons.

[2] = Flash point, small scale closed-cup apparatus (ASTM D-3278-96 e-1); details: closed-cup ASTM method; no flash point = non-flammable
Text: The acetate was thermally decomposed and the title product separated by fractional distillation. The structure was verified by GC-MS and NMR.

[3] = Open pan exposure to direct flame

SMILES | LSH (n in CnH2n+2) ([1]; 25° C.) | LSH (n in CnH2n+2) ([1]; 50° C.) | Flash point [2] | Burning in an open pan upon exposure to direct flame [3]
C=CC(F)(C(F)C(F)(F)F)C(F)(F)F (stereo not drawn) [Example 1, 3,4,5,5,5-pentafluoro-3-(trifluoromethyl)pent-1-ene] | 13 | 14 | no flash point | –
C=C(C)C1C(F)C(F)(F)C(F)(F)C1(F)F (stereo not drawn) [Example 4, 1,1,2,2,3,3,4-heptafluoro-5-isopropenyl-cyclopentane] | 17 | 21 | – | not observed to burn
